Experiments:
[1] = cited from earlier work
[2] = administered for conditions such as cystinosis; available cysteamine products; cited from earlier work
[3] = system: intracellular cystine levels in circulating leukocytes; settings: cited from earlier work
[4] = Self-treatment of dysfunctional tear syndrome patients with cysteamine ocular drops: symptom diary (3-point Likert scale), weekly interviews, patient reports; format: in vivo, human
Excerpt: (§1) Sterile ocular cysteamine drops with a concentration of 0.44% were used in a dosage schedule of one drop per eye, four times per day.
(§2) Four patients were self-treated with cysteamine ocular drops as described above for 30-37 days. Patients were requested to fill out a diary sheet daily and to return weekly for follow-up. Three of the four patients filled out the diary that included a 3-point Likert scale of symptoms, number of times drops were used daily, and a space for other comments. […] Patients were tested for MMP using the INFLAMMADRY test (see Kaufman) and the Schirmer test (in which a filter paper strip is placed in the lower fornix of the eyelid to absorb tears), with and without anesthesia, using Oxford grading (observation of conjunctiva and cornea using BIO-GLO fluorescein strips) at entry, and Schirmer with and without anesthesia on the final visit.
Four patients (Patients 1, 2, 3, and 4) were tested. […] Among the patients testing MMP-positive, there was an improvement in Likert-scale and other comments. […] Patients 1 and 3 returned for 4 weekly visits; Patient 2 returned for 5 weekly visits.
Patient 4 was not tested for MMP, but presented with symptoms of DTS, including years of pain and poor response to other treatments. On the theory the MMP is involved or a causative factor in recurrent epithelial erosion and dry eye, they were treated using the same regimen noted above for Patients 1, 2, and 3. Following treatment, Patient 4 reports being “cured,” and is apparently free of significant symptoms.

[5] = Schirmer test (filter paper strip in lower fornix) in treated DTS patients; format: in vivo, human; settings: MMP-positive patients (Patients 1 and 3)
Excerpt: as §1, §2

[6] = children with cystinosis, enteral administration

NCCS [cysteamine, Cysteamine (HS—CH2—CH—2—NH2)]
unpleasant side effects ([1]; high systemic dosing levels and frequencies, CYSTAGON package insert): gastrointestinal distress and body odor
metabolism and clearance from the body ([1]; systemic administration): converted to taurine in a matter of hours
ocular adverse effects [2]: slinging and stippling erosion of the cornea
intracellular cystine levels in circulating leukocytes ([3]; Dohil et al. 2006): lowering of intracellular cystine levels
lowering of leukocyte cystine levels [3, 6]: prolonged efficacy
plasma cysteamine levels [3, 6]: increased plasma cysteamine levels
objective and subjective symptoms of Dry Eye Disease (DTS, dry eye, keratitis sicca) ([4]; MMP positive patients, 0.44% drops, one drop per eye, four times per day): decreases
Likert-scale (3-point scale of symptoms) and other diary comments ([4]; MMP-positive patients (Patients 1 and 3), 0.44% drops four times per day, 30-37 days): improvement
symptoms reported at interview during each weekly visit ([4]; MMP-positive patients (Patients 1 and 3), FIGS. 1 and 2): changes in symptoms indicative of improvement
need for artificial tears after starting treatment ([4]; Patient 2, MMP-negative): able to go without artificial tears for a majority of the four weeks
3-point Likert scale of symptoms ([4]; Patient 2, MMP-negative, no objective findings of DTS): did not report changes
patient-reported outcome following treatment ([4]; Patient 4, not tested for MMP, recurrent epithelial erosion and dry eye, same regimen): cured
Schirmer tests at the end of the study [5]: improvement in Schirmer tests

Source: patent publication US20210196652A1, “USE OF CYSTEAMINE AND DERIVATIVES THEREOF TO TREAT DYSFUNCTIONAL TEAR SYNDROME (DTS)” (MESHABERASE, LLC, priority 2019, published 2021)
